Results: patent US20130230459A1, “RADIOLABELLED mGluR2 PET LIGANDS” (Janssen Pharmaceuticals, Inc., priority 2010, published 2013)
Values joined by “and” are separate entries in the source; they are usually repeats but may differ in a detail not shown here. Equal values may be shown once.

What was measured:
[1] = Plasma radiometabolite analysis (30 min p.i.); type: in vivo, Wistar rats; conditions: n = 2
Experimental: The metabolic stability of [^11C]B-4, [^11C]B-2, [^11C]B-7, and [^11C]B-10 was studied in healthy male Wistar rats by determination of the relative amounts of parent tracer and radiometabolites in plasma at 30 min p.i. of the tracer. After intravenous (i.v.) administration of about 74 MBq of the radioligand via tail vein under anesthesia (2.5% Isoflurane in O2 at 1 L/min flow rate), rats were sacrificed by decapitation at 30 min p.i. (n=2). Blood was collected in heparin containing tubes (4.5 mL LH PST tubes; BD vacutainer, BD, Franklin Lakes, N.J., USA) and stored on ice to stop the metabolism. Next, the blood was centrifuged for 5 min at 3000 rpm to separate the plasma. About 0.5 mL of plasma was spiked with about 10 μg of the authentic non-radioactive compound (1 mg/mL solution) and injected on to HPLC, which was connected to a Chromolith® performance column (C18, 3 mm×100 mm, Merck KGaA, Darmstadt, Germany). The mobile phase consisted of 0.05 M NaOAc buffer (pH 5.5) (solution A) and CH3CN (solvent B). The following method was used for the analysis: isocratic elution with 100% A for 4 min at a flow rate of 0.5 mL/min, linear gradient to 90% B by 9 min at a flow rate of 1 mL/min, and isocratic elution with mixture of 10% A and 90% B until 12 min. After passing through the UV detector (254 nm), the HPLC eluate was collected as 1 mL fractions (fraction collection each minute) using an automatic fraction collector and the radioactivity of these fractions was measured using an automated gamma counter.

[2] = Biodistribution studies of 11C tracers; type: in vivo, Wistar rats; conditions: for SUV Blood / SUV Cerebellum / SUV Cerebrum total / SUV Cortex / SUV Hippocampus / SUV Striatum: normalized for body weight
Experimental: Biodistribution studies were carried out in healthy male Wistar rats (body weight 200-450 g) at 2 min, 30 min and 60 min post injection (p.i.) (n=3/time point). Rats were injected with about 11 MBq (2 min, 30 min analysis) or 22 MBq (60 min analysis) of the tracer via tail vein under anesthesia (2.5% isoflurane in O2 at 1 L/min flow rate) and sacrificed by decapitation at above specified time points. Blood and major organs were collected in tared tubes and weighed. The radioactivity in blood, organs and other body parts was measured using an automated gamma counter. The distribution of radioactivity in different parts of the body at different time points p.i. of the tracer was calculated and expressed as percentage of injected dose (% ID), and as percentage of injected dose per gram tissue (% ID/g) for the selected organs. % ID is calculated as cpm in organ/total cpm recovered. For calculation of total radioactivity in blood, blood mass was assumed to be 7% of the body mass.

- Intact tracer in rat plasma [1]: 45.5 ± 2.1%
- Polar metabolites in rat plasma [1]: 54.5 ± 2.1%
- % ID Blood ([2]; 2 min p.i.): 6.0 % ID and 6.0 ± 1.3 % ID
- % ID Carcass ([2]; 2 min p.i.): 38.5 ± 2.5 % ID
- % ID Cerebellum ([2]; 2 min p.i.): 0.15 % ID and 0.149 ± 0.054 % ID
- % ID Cerebrum total ([2]; 2 min p.i.): 0.46 % ID and 0.456 ± 0.114 % ID
- % ID Cortex ([2]; 2 min p.i.): 0.053 ± 0.025 % ID
- % ID Heart ([2]; 2 min p.i.): 4.3 ± 0.3 % ID
- % ID Hippocampus ([2]; 2 min p.i.): 0.017 ± 0.005 % ID
- % ID Intestines ([2]; 2 min p.i.): 8.5 ± 0.2 % ID
- % ID Kidneys ([2]; 2 min p.i.): 7.8 ± 1.1 % ID
- % ID Liver ([2]; 2 min p.i.): 32.3 ± 3.2 % ID
- % ID Lungs ([2]; 2 min p.i.): 1.8 ± 0.1 % ID
- % ID Rest of cerebrum ([2]; 2 min p.i.): 0.387 ± 0.084 % ID
- % ID Spleen + Pancreas ([2]; 2 min p.i.): 1.5 ± 0.3 % ID
- % ID Stomach ([2]; 2 min p.i.): 1.8 ± 0.1 % ID
- % ID Striatum ([2]; 2 min p.i.): 0.026 ± 0.012 % ID
- % ID Urine ([2]; 2 min p.i.): 0.1 ± 0.0 % ID
- Total brain uptake ([2]; 2 min p.i.): 0.64 % ID and 0.64 ± 0.1 % ID
- % ID Blood ([2]; 30 min p.i.): 3.9 ± 0.1 % ID
- % ID Carcass ([2]; 30 min p.i.): 62.97 ± 2.4 % ID
- % ID Cerebellum ([2]; 30 min p.i.): 0.152 ± 0.023 % ID
- % ID Cerebrum total ([2]; 30 min p.i.): 0.637 ± 0.078 % ID
- % ID Cortex ([2]; 30 min p.i.): 0.071 ± 0.006 % ID
- % ID Heart ([2]; 30 min p.i.): 1.8 ± 0.1 % ID
- % ID Hippocampus ([2]; 30 min p.i.): 0.021 ± 0.004 % ID
- % ID Intestines ([2]; 30 min p.i.): 9.2 ± 1.4 % ID
- % ID Kidneys ([2]; 30 min p.i.): 3.3 ± 0.2 % ID
- % ID Liver ([2]; 30 min p.i.): 16.2 ± 0.4 % ID
- % ID Lungs ([2]; 30 min p.i.): 0.8 ± 0.0 % ID
- % ID Rest of cerebrum ([2]; 30 min p.i.): 0.511 ± 0.063 % ID
- % ID Spleen + Pancreas ([2]; 30 min p.i.): 1.1 ± 0.1 % ID
- % ID Stomach ([2]; 30 min p.i.): 1.8 ± 0.4 % ID
- % ID Striatum ([2]; 30 min p.i.): 0.034 ± 0.005 % ID
- % ID Urine ([2]; 30 min p.i.): 0.3 ± 0.0 % ID
- Total brain uptake ([2]; 30 min p.i.): 0.80 ± 0.1 % ID
- % ID Blood ([2]; 60 min p.i.): 3.4 % ID and 3.4 ± 0.2 % ID
- % ID Carcass ([2]; 60 min p.i.): 63.7 ± 1.8 % ID
- % ID Cerebellum ([2]; 60 min p.i.): 0.172 ± 0.030 % ID
- % ID Cerebrum total ([2]; 60 min p.i.): 0.598 ± 0.036 % ID
- % ID Cortex ([2]; 60 min p.i.): 0.070 ± 0.002 % ID
- % ID Heart ([2]; 60 min p.i.): 1.2 ± 0.1 % ID
- % ID Hippocampus ([2]; 60 min p.i.): 0.026 ± 0.002 % ID
- % ID Intestines ([2]; 60 min p.i.): 11.8 ± 0.0 % ID
- % ID Kidneys ([2]; 60 min p.i.): 2.6 ± 0.2 % ID
- % ID Liver ([2]; 60 min p.i.): 13.7 ± 1.3 % ID
- % ID Lungs ([2]; 60 min p.i.): 0.7 ± 0.0 % ID
- % ID Rest of cerebrum ([2]; 60 min p.i.): 0.466 ± 0.033 % ID
- % ID Spleen + Pancreas ([2]; 60 min p.i.): 1.4 ± 0.5 % ID
- % ID Stomach ([2]; 60 min p.i.): 2.0 ± 0.4 % ID
- % ID Striatum ([2]; 60 min p.i.): 0.035 ± 0.005 % ID
- % ID Urine ([2]; 60 min p.i.): 0.4 ± 0.1 % ID
- % ID present in liver and intestines ([2]; 60 min p.i.): 25.5 % ID
- % ID present in the urinary system ([2]; 60 min p.i.): 3.0 % ID
- Total brain uptake ([2]; 60 min p.i.): 0.78 ± 0.0 % ID
Compound: [11CH3]Oc1ccc(F)c(F)c1C1CCN(c2ccn3c(CC4CC4)nnc3c2Cl)CC1 [[^11C]B-10, 8-chloro-3-(cyclopropylmethyl)-7-[4-[2,3-difluoro-6-[^11C]methoxyphenyl]-1-piperidinyl]-1,2,4-triazolo[4,3-a]pyridine]
- SUV Blood ([2]; 2 min p.i.): 0.90 ± 0.02
- SUV Cerebellum ([2]; 2 min p.i.): 1.59 ± 0.06
- SUV Cerebrum total ([2]; 2 min p.i.): 1.12 ± 0.03
- SUV Cortex ([2]; 2 min p.i.): 1.16 and 1.16 ± 0.04
- SUV Hippocampus ([2]; 2 min p.i.): 1.11 ± 0.08
- SUV Striatum ([2]; 2 min p.i.): 1.37 ± 0.05
- SUV Blood ([2]; 30 min p.i.): 0.50 ± 0.00
- SUV Cerebellum ([2]; 30 min p.i.): 1.68 and 1.68 ± 0.05
- SUV Cerebrum total ([2]; 30 min p.i.): 1.34 ± 0.03
- SUV Cortex ([2]; 30 min p.i.): 1.39 and 1.39 ± 0.05
- SUV Hippocampus ([2]; 30 min p.i.): 0.93 ± 0.02
- SUV Striatum ([2]; 30 min p.i.): 1.39 ± 0.03
- SUV Blood ([2]; 60 min p.i.): 0.50 ± 0.00
- SUV Cerebellum ([2]; 60 min p.i.): 1.52 ± 0.02
- SUV Cerebrum total ([2]; 60 min p.i.): 1.19 ± 0.01
- SUV Cortex ([2]; 60 min p.i.): 1.08 ± 0.01
- SUV Hippocampus ([2]; 60 min p.i.): 0.94 ± 0.01
- SUV Striatum ([2]; 60 min p.i.): 1.55 ± 0.01
